The values that follow come from patent US20160038448A1, “THE INHIBITION OF THE TOXIC EFFECTS OF ISLET AMYLOID FORMATION BY FLURBIPROFEN AND FLURBIPROFEN DERIVATIVES” (The Research Foundation for the State University of New York, priority 2013, published 2016).

The nature of data set [1]: Parallel biophysical and cell viability experiments on h-IAPP variants. The format is cell-based. As for the experimental part: Parallel biophysical and cell viability experiments were conducted using a range of conditions that alter the length of the lag phase. h-IAPP amyloid kinetics are concentration-dependent. Decreasing the peptide concentration leads to an increase in the length of the lag phase, while an increase in human-IAPP concentration leads to a shortening of the lag phase. The length of the lag phase can also be controlled by altering the temperature. Lower temperatures lead to a longer lag phase; the lag phase is 2-fold longer at 15° C. […] A set of rationally designed Ser-20 mutations were used. Ser-20 is located at a critical position in the h-IAPP sequence and modulates its aggregation kinetics. […] Toxicity and kinetics experiments were performed on the Ser-20 mutants. […] An human-IAPP triple mutant, 3×L-IAPP, in which Leu replaced the three aromatic residues (Phe-15, Phe=23 and Tyr-37) was tested. This mutant forms amyloid 9-fold more slowly than wild type human IAPP (Marek at al. 2007). […] The duration of toxicity for all the mutants and for all the conditions with human IAPP wild type correlated with the length of the respective lag phases.

For data set [2] the following is noted: Marek at al. 2007; cited from earlier work.
Data set [3] concerns the target T1, human IAPP (Homo sapiens, UniProt P10997).
T1 construct: Mature, fully processed, Amylin is 37 residues in length, contains a disulfide bond between residues 2 and 7; made in house; host or cells: chemical solid-phase peptide synthesis (Fmoc), no expression host
T1 sequence (P10997 34-70 limits assumed): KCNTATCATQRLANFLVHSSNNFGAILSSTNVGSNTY
In words: Fluorescence detected thioflavin-T assay of the time course of amyloid formation. Type of data set: biochemical. The procedure: Peptides were first dissolved in 100% hexafluoroisopropanol (HFIP) at a concentration 1.6 mM and then filtered to remove any preformed amyloid aggregates. For thioflavin-T fluorescence assays, aliquots were lyophilized and redissolved in pH 7.4, 20 mM Tris-HCl buffer at the desired concentration. Aspirin and Ketoprofen were prepared in 100% dimethyl sulfoxide (DMSO).
Solutions were prepared by adding pH 7.4, 20 mM Tris buffer and thioflavin-T to lyophilized dry peptides for a final peptide concentration of […]. For the studies of Aspirin and Ketoprofen, 0.25% DMSO was present in the solution. Measurements were made at 25° C. using a Beckman Coulter DTX880 plate reader without stirring. An excitation filter of 430 nm and an emission filter of 485 nm were used. To test disaggregate activity of Aspirin, peptide was first incubated in low-binding 96-wells plate and monitored by plate reader to ensure the formation of amyloid fibrils.
A mixture of flurbiprofen (1-20 parts) and human IAPP (1 part) was monitored by fluorescence detected thioflavin-T assays. The assays monitored the time course of amyloid formation (amount vs time) in the presence and absence of flurbiprofen.
A mixture of OH-flurbiprofen and human IAPP were monitored by fluorescence detected thioflavin-T assays. Three different concentrations (1:1 ratio, 1:10 ratio and 1:20 ratio of IAPP to OH-flurbiprofen) were tested against human IAPP without any added OH-flurbiprofen. The assays monitored the time course of amyloid formation (amount vs time) in the presence and absence of a flurbiprofen derivative.
Three different mixtures of NSAIDs (20 parts) and human IAPP (1 parts) were compared to each other and human IAPP alone by fluorescence detected thioflavin-T assays. The assays monitored the time course of amyloid formation (amount vs time) in the presence and absence of aspirin, naproxen and flurbiprofen.

Data set [4] concerns the target T2, pre-formed human amylin amyloid fibrils (Homo sapiens, UniProt P10997).
T2 construct: Mature, fully processed, Amylin is 37 residues in length, contains a disulfide bond between residues 2 and 7; made in house; host or cells: chemical solid-phase peptide synthesis (Fmoc), no expression host
T2 sequence (P10997 34-70 limits assumed): T1 sequence (P10997 34-70 limits assumed)
In words: Disaggregation of pre-formed amylin amyloid fibrils (thioflavin-T and TEM). The format is biochemical. The conditions noted are these: 20-fold excess added after amyloid formation was complete; up to 48 hours.
Procedure: Solutions were prepared by adding pH 7.4, 20 mM Tris buffer and thioflavin-T to lyophilized dry peptides for a final peptide concentration of 16 M. For the studies of Aspirin and Ketoprofen, 0.25% DMSO was present in the solution. Measurements were made at 25° C. using a Beckman Coulter DTX880 plate reader without stirring. An excitation filter of 430 nm and an emission filter of 485 nm were used.

Data set [5] deals with T3, human IAPP (amylin) (Homo sapiens, UniProt P10997).
T3 construct: Mature, fully processed, Amylin is 37 residues in length, contains a disulfide bond between residues 2 and 7; made in house; host or cells: chemical solid-phase peptide synthesis (Fmoc), no expression host
T3 sequence (P10997 34-70 limits assumed): T1 sequence (P10997 34-70 limits assumed)
Briefly: Transmission electron microscopy of amyloid fibrils. The format is biochemical. The conditions noted are these: equimolar to 20-fold excess of Ketoprofen, 42 hours, amylin 16 μM. The procedure:
TEM was performed at the Life Science Microscopy Center at Stony Brook University. Aliquots were removed from the same solutions that were used for the fluorescence measurements. 5 μL of peptide solution was placed on carbon-coated Formvar 300 mesh copper grid for one minute and then negatively stained with saturated uranyl acetate for another one minute.

The test system of data set [6] is rat INS-1 beta-cells. Briefly: AlamarBlue cell viability of beta-cells given aliquots of the IAPP amyloid time course. The format is cell-based. The conditions noted are these: human IAPP with compound. As for the experimental part: FIG. 5. […] (A) A thioflavin-T monitored time course of amyloid formation in the presence and absence of flurbiprofen. […] 20 mM Tris-HCl buffer with 0.25% DMSO was used as the control.
The presence of toxic intermediates is reduced when amyloid formation is accelerated by use of flurbiprofen or a flurbiprofen derivative. A thioflavin-T monitored time course of amyloid formation by human IAPP was conducted in the presence and absence of flurbiprofen. Aliquots were removed at various time points and applied to rat INS-1 beta-cells; at thirty minutes, at 12 hours, at 48 hours. Cell viability as judged by AlamarBlue assays. 20 mM Tris-HCl buffer with 0.25% DMSO was used as the control.

Data set [7] deals with 3XL-IAPP mutant (F15L, F23L, Y37L human IAPP). In words: Thioflavin-T assay of mutant human IAPP amyloid formation (3XL). Type of data set: biochemical. The note with it: WT human IAPP and mutant IAPP compared. The source says: A mixture of flurbiprofen (20 parts) and human IAPP (1 part) was monitored by fluorescence detected thioflavin-T assays. The assays monitored the time course of amyloid formation (amount vs time) in the presence and absence of flurbiprofen. The effect of flurbiprofen in wild-type (WT) human IAPP, and in two mutants of human IAPP was monitored. In one mutant, all of the aromatic amino acids in human IAPP were replaced by […] human IAPP was examined. A second mutant in which […] human IAPP) was also tested.

“Also recorded” adds a separate entry of the source. Where a SMILES comes first, the peptide text is derived from it. Bridges are numbered along the chain shown (N, C = ends).

As to `CC[C@H](C)[C@H](NC(=O)[C@H](C)NC(=O)CNC(=O)[C@H](CC(C)C)NC(=O)[C@H](CC(N)=O)NC(=O)[C@H](CC(N)=O)NC(=O)[C@H](CO)NC(=O)[C@H](CO)NC(=O)[C@H](Cc1c[nH]cn1)NC(=O)[C@@H](NC(=O)[C@H](CC(C)C)NC(=O)[C@H](CC(C)C)NC(=O)[C@H](CC(N)=O)NC(=O)[C@H](C)NC(=O)[C@H](CC(C)C)NC(=O)[C@H](CCCNC(=N)N)NC(=O)[C@H](CCC(N)=O)NC(=O)[C@@H](NC(=O)[C@H](C)NC(=O)[C@@H]1CSSC[C@H](NC(=O)[C@@H](N)CCCCN)C(=O)N[C@@H](CC(N)=O)C(=O)N[C@@H]([C@@H](C)O)C(=O)N[C@@H](C)C(=O)N[C@@H]([C@@H](C)O)C(=O)N1)[C@@H](C)O)C(C)C)C(=O)N[C@@H](CC(C)C)C(=O)N[C@@H](CO)C(=O)N[C@@H](CO)C(=O)N[C@H](C(=O)N[C@@H](CC(N)=O)C(=O)N[C@H](C(=O)NCC(=O)N[C@@H](CO)C(=O)N[C@@H](CC(N)=O)C(=O)N[C@H](C(=O)N[C@@H](CC(C)C)C(N)=O)[C@@H](C)O)C(C)C)[C@@H](C)O` [3×L-IAPP] (H-KCNTATCATQRLANLLVHSSNNLGAILSSTNVGSNTL-NH2; disulfide 2-7), in data set [1], the “onset and duration of toxicity relative to wild type human IAPP” value is given as “longer duration of toxicity”. Moreover, the “amyloid formation slower than wild type human IAPP” value in data set [2] is recorded as 9 fold.

For `CC(C(=O)O)c1cccc(C(=O)c2ccccc2)c1` (stereo not drawn) [Ketoprofen], the “inhibition of amyloid formation by human IAPP (amylin)” value in data set [3] (20 to 1 ratio of NSAID to human IAPP, pH 7.4, 25° C.) is on record as “do not inhibit amylin amyloid formation”. Besides, the “disaggregation of pre-formed amylin amyloid fibrils” value in data set [4] is “unable to disassemble pre-formed amylin amyloid”. The “inhibition of amylin amyloid formation judged by TEM” value in data set [5] was “not an amylin amyloid inhibitor; also recorded: does not inhibit amyloid formation by amylin”.

Take `C[C@@H](C(=O)O)c1ccc(-c2ccccc2)c(F)c1` [R-flurbiprofen]: in data set [6], the “presence and toxic effects of intermediates of amyloid formation” value is “reduced the presence and toxic effects of intermediates of amyloid formation”. Further, the “effect on human IAPP amyloid formation (thioflavin-T time course)” value is “accelerated islet amyloid formation” in data set [3] (20 to 1 ratio of compound to human IAPP) and “equally effective” in data set [3] (20 to 1 ratio of compound to human IAPP, listed as R flurbiprofen). Moreover, the “acceleration of amyloid formation and reduction of toxic effects of intermediates, WT human IAPP versus mutant IAPP” value in data set [7] was “about equally”.

As for `CC[C@H](C)[C@H](NC(=O)[C@H](C)NC(=O)CNC(=O)[C@H](Cc1ccccc1)NC(=O)[C@H](CC(N)=O)NC(=O)[C@H](CC(N)=O)NC(=O)[C@H](CCCCN)NC(=O)[C@H](CO)NC(=O)[C@H](Cc1c[nH]cn1)NC(=O)[C@@H](NC(=O)[C@H](CC(C)C)NC(=O)[C@H](Cc1ccccc1)NC(=O)[C@H](CC(N)=O)NC(=O)[C@H](C)NC(=O)[C@H](CC(C)C)NC(=O)[C@H](CCCNC(=N)N)NC(=O)[C@H](CCC(N)=O)NC(=O)[C@@H](NC(=O)[C@H](C)NC(=O)[C@@H]1CSSC[C@H](NC(=O)[C@@H](N)CCCCN)C(=O)N[C@@H](CC(N)=O)C(=O)N[C@@H]([C@@H](C)O)C(=O)N[C@@H](C)C(=O)N[C@@H]([C@@H](C)O)C(=O)N1)[C@@H](C)O)C(C)C)C(=O)N[C@@H](CC(C)C)C(=O)N[C@@H](CO)C(=O)N[C@@H](CO)C(=O)N[C@H](C(=O)N[C@@H](CC(N)=O)C(=O)N[C@H](C(=O)NCC(=O)N[C@@H](CO)C(=O)N[C@@H](CC(N)=O)C(=O)N[C@H](C(=O)N[C@@H](Cc1ccc(O)cc1)C(N)=O)[C@@H](C)O)C(C)C)[C@@H](C)O` [S20K-human IAPP], in data set [1], the “onset and duration of toxicity relative to wild type human IAPP” value is “increased the duration of toxicity”.

Take S-Flurbiprofen: the “presence and toxic effects of intermediates of amyloid formation” value in data set [6] is “reduced the presence and toxic effects of intermediates of amyloid formation”. The “effect on human IAPP amyloid formation (thioflavin-T time course)” value is “equally effective” in data set [3] (20 to 1 ratio of compound to human IAPP, listed as S flurbiprofen); “accelerated islet amyloid formation” in data set [3] (20 to 1 ratio of compound to human IAPP, listed as S-flurbiprofen); “accelerates amyloid formation by human IAPP in a dose dependent manner” in data set [3] (IAPP:compound ratios 1:1 to 1:20, pH 7.4, 20 mM Tris, 25° C.). Also, in data set [7], the “acceleration of amyloid formation and reduction of toxic effects of intermediates, WT human IAPP versus mutant IAPP” value was “about equally”.
